According to US20030108620A1, “Pharmaceutical composition comprising a physiologically acceptable vanadium compound, salt or complex and at least a component selected from a na+/hinhibitors, cyclo-oxygenase inhibitors and caspase inhibitors” (priority 1999, published 2003):

How the values were obtained:
[1] = tested on: hearts of phenobarbital anaesthetized rats; assay: Infarcted area after 60 minutes coronary artery occlusion and 180 minutes of reperfusion in anaesthetized rats; format: in vivo, rat; settings: for LA/AR ratio: normothermia (36.5-37.5° C.), mean±standard error margin, n=6, P<0.001, pretreated 25 minutes prior to CAO; for IA (% AR) / % Reduction: rat, 60 min CAO and 180 min reperfusion; for IA (% AR): i.v. bolus 25 minutes prior to CAO, BMOV 3.3 mg/kg, DMA 3.0 mg/kg; for % Reduction: reduction of IA (% AR) versus control
Protocol: Area at risk (AR) and infarcted area (IA) were determined in hearts of phenobarbital anaesthetized rats after 60 minutes coronary artery occlusion (CAO) and 180 minutes of reperfusion. […] The mean AR expressed as percentage of the left ventricle was not different between the control and the experimental group.

deep burn wounds, dermis = assay: Deep burn wound model in the Yorkshire pig, preservation of the dermis; format: in vivo, Yorkshire White; settings: intravenously in a single dose; for % Preservation of dermis: equal dose in g/kg bodyweight
From the text: The Yorkshire pig has been chosen as the experimental animal because of all animal species this domestic pig seems to be the one with morphological and functional skin characteristics nearest to human skin and so best fulfils the requirements of a model for human skin. In basic architecture it resembles human skin in the relative thickness of the epidermis and dermis, the presence of epidermal ridges, a distinct dermal papillary layer and a deep layer of subdermal fat. Compared to human the elastic fibre content of porcine dermis is relatively low, but higher than in any other species. […] Studies on the proliferation rate of porcine epidermis show parallels with those of humans. The keratinous proteins are similar. Unlike the skin of rodents, the follicular pattern in pigs and humans is relatively sparse and arranged as single hairs or in groups of two or three follicles. […] The regulation of body temperature by the skin is more evident in humans than in the pig. In the skin of the pig no eccrine glands are found. It does have apocrine glands, but their role in thermoregulation remains debatable. The vascular anatomy of pig skin consists of a three layered network; lower, mid-dermal and sub epidermal. The size, orientation and distribution of the vessels are strikingly similar to human skin, but it does differ from humans in that the sub epidermal network is less dense. The vascularisation of the lower region of the follicle corresponds to that in humans. The healing of deep dermal bums, which depends on this phenomenon, might also be analogous. Studies on the thermal properties of porcine skin as a function of depth have been performed by measuring the tissue water content.
Protocol 1a: Twelve identical deep burn wounds were inflicted in each animal. The animal model used is developed in the Burn Research Institute (Beverwijk, The Netherlands) and is a standard for all of the experimental burn wound research. The model is also accepted by the animal experimental commission of the University of Amsterdam.
Protocol 1b: Six biopsies of 6 mm of the burned area were taken from each big and transferred to a non-burned area. Six biopsies of 6 mm of the non-burned area were be taken from each pig and transferred to a burned area. (Determination of the indirect injury) Animals: pig, Yorkshire White, female, +/− 30 kg. […]

swine myocardium = settings: also when administered after the onset of ischaemia; cited from earlier work

Row | SMILES | LA/AR ratio [1] | IA (% AR) [1] | % Reduction [1] | protection of structures in the dermis (deep vascular plexus, hair-adnexes, sweat glands) (deep burn wounds, dermis) | % Preservation of dermis (deep burn wounds, dermis) | infarct size (swine myocardium)
1 | Cc1occc(=O)c1[O-].Cc1occc(=O)c1[O-].[O]=[V+2] [BMOV, bis(maltolato)oxovanadium(IV)] | 45±3% | 45 % AR | 36% | protected | 40-50% | 
2 | CN(C)c1nc(N)c(C(=O)N=C(N)N)nc1Cl [DMA, dimethylamiloride] | 45±3% | 55 % AR | 21% | protected | 20% | 
3 | CS(=O)(=O)O.CS(=O)(=O)c1cc(C(=O)NC(=N)N)ccc1N1CCCCC1 [HOE 694, (3-methylsulfonyl-4-piperidinobenzoyl)-guanidine methanesulfonate] |  |  |  |  |  | substantial reduction of the infarct size
